The source of these data is patent US20110160280A1, “CANCER-RELATED GENES, CDCA5, EPHA7, STK31 AND WDHD1” (Oncotherapy Science, Inc., priority 2007, published 2011).

Series [1] concerns the target T1, EPHA7 (Homo sapiens, UniProt Q15375).
T1 construct: in vitro kinase assay using active recombinant proteins of cytoplasmic EPHA7, MET, EGFR; purchased Carnabioscience, Kobe, Japan
The series is described as follows: In vitro EPHA7 kinase assay: EPHA7 autophosphorylation. It is filed as biochemical. As to conditions: at the minimum concentration inhibiting EGFR or MET autophosphorylation (assay used 1 mM AG1478, 12.5 μM SU11274). The protocol:
Active recombinant EPHA7 (Carnabioscience, Kobe, Japan), EGFR (Millipore, Billerica, Mass.), MET (Millipore), EGFR inhibitor AG1478 (EMD), and MET inhibitor SU11274 were commercially purchased. We constructed plasmids expressing partial fragments of EGFR (#1: codons 692-891, #2: codons 889-1045, #3: codons 1046-1186) that contained GST-tagged epitopes at their N-terminals were prepared using pGEX vector (GE Healthcare Bio-sciences). The recombinant peptides were expressed in Escherichia coli, BL21 codon-plus strain (Stratagene, La Jolla, Calif.), and purified using TALON resin (BD Biosciences Clontech) according to the supplier's protocol. The purified proteins were extracted on an SDS-PAGE gel. […] ATP (GE Healthcare Bio-sciences). After incubation at 30 degrees C. for 30 minutes the reactions were terminated by addition of SDS sample buffer. After boiling, the protein samples were electrophoresed on 5% to 15% gradient gel (Bio-Rad), and then signals were visualized by Molecular imager FX (Bio-Rad). In EPHA7 kinase assay using MET as substrate, we adopted the same protocol as above mentioned EPHA7-EGFR kinase reaction, using 50 ng of MET and 12.5 μM of SU11274 (MET inhibitor; see above), instead of EGFR and AG1478. […] ATP, and detected phosphorylated proteins using anti-pan phospho-tyrosine antibody (Invitrogen).

Series [2] has as its system CDCA5. Put plainly: RNA interference assay: CDCA5 expression by semiquantitative RT-PCR. It is filed as cell-based, human. As to conditions: A549 and LC319 cells; compared with control siRNA (si-LUC and si-CNT). As for the experimental part:
(§1) Total RNA was extracted from cultured cells using Trizol reagent (Life Technologies, Inc. Gaithersburg, Md.) according to the manufacturer's protocol. Extracted RNAs were treated with DNase I (Nippon Gene, Tokyo, Japan) and reversely-transcribed using oligo (dT) primer and SuperScript II. The primer sets for amplification were as follows:
(§2) Small interfering RNA (siRNA) duplexes (Dharmacon, Inc., Lafayette, Colo.) (600 pM) were transfected into lung-cancer cell lines LC319 and A549 for CDCA5; NCI-H520 and SBC-5 for EPHA7; LC319 for WDHD1, and esophageal cancer cell line TE9 for WDHD1 using 30 μl of Lipofectamine 2000 (Invitrogen, Carlsbad, Calif.) following the manufacturer's protocol. The transfected cells were cultured for 7 days, and the number of colonies was counted by Giemsa staining, and viability of cells was evaluated by 3-(4,5-dimethylthiazol-2-yl)-2,5-diphenyltetrazolium bromide (MTT) assay (cell counting kit-8 solution; Dojindo Laboratories, Kumanoto, Japan), at 7 days after transfection. To confirm suppression of gene expression, semiquantitative RT-PCR was carried out with synthesized primers described above.

Series [3] has as its system CDCA5. The protocol:
(§3) Cultured A549 and LC319 lung cancer cells as well as cervical squamous cell carcinoma Hela cells were synchronized in G1/S phase by 2 μg/ml aphidilcoline for 16 hours incubation. For mitosis synchronization, the cells were released at 0 hour from G1/S phase. Nocodazole was added at 5 hours to prevent mitotic exit. At the point, CDC2 inhibitors or PBS were added to the cell cultures. For the EGF stimulation assay, Hela cells were cultured in FBS free medium for 20 hours. Then, the cells were stimulated by […] EGF for 30 min with or without 10 μM MEK inhibitor U0126 (Promega)

For the next series, the system named is ERK. As to conditions: serum-starved Hela cells, EGF stimulation with 10 μM U0126. The protocol: as §3
For series [4], the system named is CDCA5. Put plainly: CDC2-dependent phosphorylation of CDCA5 in mitosis, western blotting. It is filed as cell-based. As for the experimental part:
To determine whether endogenous CDCA5 phosphorylation in mitosis was CDC2-dependent, we further treated the lung cancer cells at 5 hours after release from G1/S phase with nocodazole alone or both nocodazole and CDC2 inhibitor CGP74514A, and measured the status of CDCA5 phosphorylation by western blotting. Mitotic cells treated with nocodazole alone gradually expressed phosphorylated CDCA5 (shifted bands) (FIG. 19B).
(In general: Immunoblotting shows a protein as a band on a membrane.)

A further series concerns WDHD1. The series is described as follows: RNA interference assay: WDHD1 knockdown by RT-PCR. It is filed as cell-based, human. The note with it: A549, LC319 and TE9 cells. The protocol:
as §1, §2

The test system of another series is STK31. The series is described as follows: RNA interference assay (vector based): STK31 knockdown by RT-PCR. The format is cell-based, human. The note with it: LC319 cells; controls si-EGFP and si-LUC. As for the experimental part: as §1
(§4) The present inventors had established previously a vector-based RNAi system, psiH1BX3.0, which was designed to synthesize small interfering RNAs (siRNA) in mammalian cells (Suzuki C, et al., Cancer Res. 2003 Nov. 1; 63(21): 7038-41). Ten micrograms of siRNA expression vector were transfected using 30 μL Lipofectamine 2000 (Invitrogen) into lung cancer cell lines, LC319 and NCI-H2170. The transfected cells were cultured for 7 days in the presence of appropriate concentrations of geneticin (G418), and the number of colonies was counted by Giemsa staining, and viability of cells was evaluated by 3-(4,5-dimethylthiazol-2-yl)-2,5-diphenyltetrazolium bromide (MTT) assay (cell counting kit-8 solution; Dojindo, Kumamoto, Japan), at 7 days after the G418 treatment. To confirm suppression of STK31 protein expression, Western blotting was carried out with affinity-purified polyclonal antibody to STK31 according to the standard protocol. The target sequences of the synthetic oligonucleotides for RNAi were as follows: […]

Another series concerns LC319 cells. The series is described as follows: RNA interference assay (vector based): colony formation and MTT assays. It is filed as cell-based, human. As to conditions: P<0.001; 7 days with G418. The protocol:
as §4
On the technique in general: Tetrazolium dyes change colour on reduction, which living cells bring about.

In series [5] the test system is EPHA7. The series is described as follows: RNA interference assay: EPHA7 expression by semiquantitative RT-PCR. The format is cell-based, human. The note with it: NCI-H520 and SBC-5 cells; versus control siRNAs (LUC, SCR). The protocol: as §1, §2
For the next series, the system named is SBC-5 cells. The series is described as follows: RNA interference assay (oligo based): colony formation and MTT assays. The note with it: 7 days after transfection. The format is cell-based, human. The protocol:
as §2

Another series concerns NCI-H520 cells. The series is described as above. The format is cell-based, human. As to conditions: 7 days after transfection. The protocol:
as §2

In another series the test system is NSCLC. The note with it: cited from earlier work.

T1 sequence (Q15375 577-998 limits assumed): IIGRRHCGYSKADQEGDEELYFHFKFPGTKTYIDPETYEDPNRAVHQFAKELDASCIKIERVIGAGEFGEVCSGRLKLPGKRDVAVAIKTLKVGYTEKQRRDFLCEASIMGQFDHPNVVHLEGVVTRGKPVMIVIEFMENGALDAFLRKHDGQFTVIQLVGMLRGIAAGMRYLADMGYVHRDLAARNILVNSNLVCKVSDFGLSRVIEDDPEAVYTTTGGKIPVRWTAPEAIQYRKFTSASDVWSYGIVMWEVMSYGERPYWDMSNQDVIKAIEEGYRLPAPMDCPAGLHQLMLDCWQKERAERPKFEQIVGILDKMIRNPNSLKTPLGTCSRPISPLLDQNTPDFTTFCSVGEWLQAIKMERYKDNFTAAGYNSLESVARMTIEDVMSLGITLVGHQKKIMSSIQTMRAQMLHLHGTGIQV

Regarding `Cc1[nH]c(/C=C2\C(=O)Nc3ccc(S(=O)(=O)N(C)c4cccc(Cl)c4)cc32)c(C)c1C(=O)N1CCN(C)CC1` [SU11274], the EPHA7 autophosphorylation result at EPHA7 [1] is recorded as “did not inhibit EPHA7 autophosphorylation”.
For “5′-GCAGUUUGAUCUCCUGGUUU-3′ [si-CDCA5-#1]”, the “expression of CDCA5” value in the series on CDCA5 [2] is “significantly suppressed expression of CDCA5”.
As to `N#CC(=C(/N)Sc1ccccc1N)/C(C#N)=C(\N)Sc1ccccc1N` [U0126], the “signal of spot no. 2 of myc-tagged CDCA5, 2D-western-blotting” value in the series on CDCA5 [3] (Hela cells, EGF, U0126 treatment) is on record as “reduced”. In addition, in the series on CDCA5 [3] (Hela cells, EGF, pre-incubation with U0126), the “shifted spots with more acidic pI (spots no. 3 and 4) of myc-tagged CDCA5, 2D-western-blotting” value is “significantly reduced”. Further, the “upper shift of CDCA5 band (endogenous CDCA5 phosphorylation)” value in the series on CDCA5 [3] (serum-starved Hela cells, EGF stimulation with 10 μM U0126) is recorded as “completely inhibited the upper shift of CDCA5 band”. In addition, in the series on ERK, the “levels of ERK phosphorylation” value is on record as “reduced the levels of ERK phosphorylation”.
Turning to “5′-GCCAGAGACUUGGAAAUGU UU-3′ [si-CDCA5-#2]”, the “expression of CDCA5” value in the series with CDCA5 [2] is reported as “significantly suppressed expression of CDCA5”.
Consider `CCn1cnc2c(Nc3cccc(Cl)c3)nc(N[C@@H]3CCCC[C@@H]3N)nc21` [CGP74514A], for which the “CDCA5 phosphorylation in mitosis (upper shifted bands)” value in the series with CDCA5 [4] (added with nocodazole 5 hours after release from G1/S phase) is recorded as “showed no upper shifted bands indicating that CDCA5 phosphorylation in mitosis was significantly inhibited”. In addition, the “stability of CDCA5 protein” value with CDCA5 [4] (cells treated with CDC2 inhibitor (FIG. 19C)) is “seems to be unstable”.
Turning to “5′-GAUCAGACAUGUGCUAUUA UU-3′ (GAUCAGACAUGUGCUAUUAUU; listed as RNA, chemistry not given here) [si-WDHD1-#1]”, the “WDHD1 knockdown effect (RT-PCR)” value in the series with WDHD1 is on record as “knockdown effect was confirmed”.
For the compound 5′-GGAGATAGCTCTGGTTGAT-3′ [si-STK31-#1], the “STK31 knockdown effect (RT-PCR)” value with STK31 was “knockdown effect was confirmed”. Besides, the “number of LC319 cells (MTT and colony-formation assays), siRNA against STK31” value in the series on LC319 cells is “drastic reduction in the number of cells”.
Turning to 5′-AAAAGAGAUGUUGCAGUA-3′ [si-EPHA7-#1], the “EPHA7 mRNA levels / EPHA7 expression” value with EPHA7 [5] is “weak reduction of EPHA7 expression”. For the same compound, the “number of colonies and viable cells (MTT), SBC-5 cells, siRNA against EPHA7” value with SBC-5 cells was “slight decreases in colony numbers and cell viability”. The “number of colonies and viable cells (MTT), NCI-H520 cells, siRNA against EPHA7” value with NCI-H520 cells is “slight decreases in colony numbers and cell viability”.
As for `C#Cc1cccc(Nc2ncnc3cc(OCCOC)c(OCCOC)cc23)c1` [erlotinib], the median survival in the series with NSCLC (NSCLC patients, placebo 4.7 months (Shepherd et al. 2005)) is reported as 6.7 months.
On to 5′-GGGCTATTCTGTGGATGTT-3′ [si-STK31-#2], for which the “STK31 knockdown effect (RT-PCR)” value with STK31 is “knockdown effect was confirmed”. For the same compound, in the series with LC319 cells, the “number of LC319 cells (MTT and colony-formation assays), siRNA against STK31” value is recorded as “drastic reduction in the number of cells”.
As to `COc1cc2ncnc(Nc3ccc(F)c(Cl)c3)c2cc1OCCCN1CCOCC1` [gefitinib], the clinical outcome in the series with NSCLC (NSCLC (Giaccone 2004; Baselga 2004)) is “superior response rate and symptom control”.
As for `COc1cc2ncnc(Nc3cccc(Cl)c3)c2cc1OC` [AG1478], on EPHA7 [1], the EPHA7 autophosphorylation result is reported as “did not inhibit EPHA7 autophosphorylation”.
With `O=C1Cc2c([nH]c3ccc([N+](=O)[O-])cc23)-c2ccccc2N1` [alsterpaullone], the “CDC2-inhibitory activity relative to CGP74514A” value in the series on CDCA5 [4] is reported as “lower compared with the other CDC2 inhibitor CGP74514A”. Further, the “CDCA5 phosphorylation in mitosis” value with CDCA5 [4] (4 μM, with nocodazole 5 hours after release from G1/S phase) is given as “could strictly inhibit CDCA5 phosphorylation”.
Consider 5′-UAGCAAAGCUGACCAAGAA-3′ [si-EPHA7-#2], for which the “EPHA7 mRNA levels / EPHA7 expression” value in the series on EPHA7 [5] is given as “significantly decreased”. In addition, in the series on SBC-5 cells, the “number of colonies and viable cells (MTT), SBC-5 cells, siRNA against EPHA7” value was “significant decreases in the number of colonies formed and in the numbers of viable cells”. In the series on NCI-H520 cells, the “number of colonies and viable cells (MTT), NCI-H520 cells, siRNA against EPHA7” value was “significant decreases in the number of colonies formed and in the numbers of viable cells”.
